Measurements as given in patent publication US20220281859A1, “HETEROCYCLIC COMPOUNDS AS KINASE INHIBITORS” (Nuvation Bio Inc., priority 2019, published 2022).

Columns and labels:
CDK4 = target: T1, CDK4 (Homo sapiens, UniProt P11802); experiment: In vitro kinase inhibition IC50, luminescence (ADP Glo) with retinoblastoma as substrate; type: biochemical; settings: ATP 25 μM, 2H at room temperature
T1 construct: purchased Invitrogen PR8064A
Procedure: (§1) IC50 values of compounds against CDK4 and CDK6 were determined by luminescence using retinoblastoma as substrate. Kinase assays were performed in kinase buffer (#PV6135, Invitrogen, Life Technologies Grand Island, N.Y.) where total reaction volume was 30 μL/well in 96-well half area white plates (#3693, Costar). One microliter of 25×test compounds at specific concentrations (e.g., final concentration range: 0.1 nM-200 nM) was mixed with 10 μL of 2.5×kinase (5 nM, CDK4 #PR8064A and CDK6 #PR8422B, Invitrogen) solution and 14 μL of 4× mixed solution with retinoblastoma (1 μM, #12-439, EMD Millipore, Hayward, Calif.) and ATP (25 μM, #V7038, Promega, Madison, Wis.). The plates were covered and incubated for 2H at room temperature. At the end of incubation, 25 μL of stop solution—ADP Glo reagent (#V7002, Promega) was added. After incubation for 45 min at room temperature, 50 μL of detection reagent (##V7002, Promega) was added. Readings were taken at 15 min and 45 min incubation after detection reagent was added in a Synergy Neo Plate reader (BioTek, Winooski, Vt.) at single excitation of 340 nm and Dual emission at 495 nm and 520 nm respectively. The following equations were used in the CDK4 and CDK6 assay data analysis. Percent inhibition (100-% activity) was fitted to the “four-parameter logistic model” in XLfit for determination of IC50 values.
(§2) Percent conversion of enzyme=100−{(RLUNo Drug−No enzyme*100)/RLUNo drug+Enzyme} Equation 1
(§3) Percent conversion at each data point=100−{(RLUAverage(Drug+enzyme)*100)/RLUNo drug+Enzyme} Equation 2
(§4) Percent Inhibition=100*(% Conversioneach data point/% ConversionEnzyme) Equation 3

CDK6 = target: T2, CDK6 (Homo sapiens, UniProt Q00534); experiment: as above; type: biochemical; settings: ATP 25 μM, 2H at room temperature
T2 construct: purchased Invitrogen PR8422B
T2 sequence (Q00534 whole entry): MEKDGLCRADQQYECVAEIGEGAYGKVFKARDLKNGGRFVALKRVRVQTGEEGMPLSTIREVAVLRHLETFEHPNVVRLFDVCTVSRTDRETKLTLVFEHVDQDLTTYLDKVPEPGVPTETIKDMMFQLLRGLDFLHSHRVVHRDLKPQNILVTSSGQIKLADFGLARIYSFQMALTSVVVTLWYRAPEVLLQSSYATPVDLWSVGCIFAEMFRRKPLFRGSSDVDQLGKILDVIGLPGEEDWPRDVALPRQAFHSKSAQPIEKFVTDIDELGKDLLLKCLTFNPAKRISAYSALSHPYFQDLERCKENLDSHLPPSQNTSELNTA
T2 sequence (P24385 whole entry partner): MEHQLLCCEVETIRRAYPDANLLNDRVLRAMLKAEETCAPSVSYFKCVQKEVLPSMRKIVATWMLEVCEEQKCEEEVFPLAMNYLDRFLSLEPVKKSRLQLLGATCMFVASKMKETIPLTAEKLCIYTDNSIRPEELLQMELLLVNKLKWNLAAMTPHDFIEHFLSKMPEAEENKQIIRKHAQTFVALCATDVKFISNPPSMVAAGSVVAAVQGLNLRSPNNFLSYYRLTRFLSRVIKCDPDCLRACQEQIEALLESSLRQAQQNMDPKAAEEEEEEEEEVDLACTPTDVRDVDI
Procedure: as §1, §2, §3, §4

DU4475 = experiment: Cancer cell proliferation assay as a single agent (cell viability); type: cell-based; settings: Homo sapiens, DU-4475; DU4475 breast carcinoma, Rb Negative, 144H treatment
Procedure: (§5) The effects of test compounds were studied in two breast cancer cell lines of different subtype. The cancer cells (Table 3) were harvested during the logarithmic growth period and counted. Cell concentrations were adjusted to the appropriate number with respective medium and 90 μL cell suspensions were added to 96-well plates. After cells were seeded, the plates were shaken gently to distribute cells evenly and incubated at 37° C., 5% CO2 on day 1.
(§6) Cells were treated with test compounds at 7 to 9 concentrations within a desired concentration range (e.g. 1.1 nM-10 μM) on day 2 by series diluting the test compound stock solution (10 mM in DMSO) with culture medium. Treatment duration was 144H (with a medium change at 72H) for both MCF-7 and DU4475 cells. Cell viability was assessed by Cell Titer-Glo® as recommended by Promega (Cat. No.: G7572), or by resazurin assay (Sigma Aldrich, Cat. No.: R7017) post treatment.
(§7) Cell viability data were plotted using GraphPad Prism (GraphPad Software, Inc., San Diego, Calif.). In addition, a nonlinear regression model with a sigmoidal dose response and variable slope within GraphPad Prism was used to calculate the IC50 value of individual test compounds.

MCF-7 = experiment: as above; type: cell-based; settings: Homo sapiens, MCF7; MCF-7 breast adenocarcinoma, Rb Positive, 144H treatment
Procedure: as §5, §6, §7

CDK1 (cyclin B) = target: T3, CDK1 (cyclin B) (Homo sapiens, UniProt P06493); experiment: Z'-LYTE kinase inhibition IC50; type: biochemical; settings: ATP 34 μM, 60 minutes at room temperature
T3 construct: purchased Invitrogen Life Technologies (assay run at the vendor)
T3 sequence (P06493 whole entry): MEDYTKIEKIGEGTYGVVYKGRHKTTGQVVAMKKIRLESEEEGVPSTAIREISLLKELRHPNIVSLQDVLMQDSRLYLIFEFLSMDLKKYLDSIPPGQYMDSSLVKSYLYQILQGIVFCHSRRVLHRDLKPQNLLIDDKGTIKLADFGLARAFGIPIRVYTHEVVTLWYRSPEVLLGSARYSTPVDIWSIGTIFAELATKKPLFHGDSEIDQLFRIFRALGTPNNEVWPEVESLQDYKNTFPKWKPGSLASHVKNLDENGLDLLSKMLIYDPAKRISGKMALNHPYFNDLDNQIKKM
T3 sequence (P14635 whole entry partner): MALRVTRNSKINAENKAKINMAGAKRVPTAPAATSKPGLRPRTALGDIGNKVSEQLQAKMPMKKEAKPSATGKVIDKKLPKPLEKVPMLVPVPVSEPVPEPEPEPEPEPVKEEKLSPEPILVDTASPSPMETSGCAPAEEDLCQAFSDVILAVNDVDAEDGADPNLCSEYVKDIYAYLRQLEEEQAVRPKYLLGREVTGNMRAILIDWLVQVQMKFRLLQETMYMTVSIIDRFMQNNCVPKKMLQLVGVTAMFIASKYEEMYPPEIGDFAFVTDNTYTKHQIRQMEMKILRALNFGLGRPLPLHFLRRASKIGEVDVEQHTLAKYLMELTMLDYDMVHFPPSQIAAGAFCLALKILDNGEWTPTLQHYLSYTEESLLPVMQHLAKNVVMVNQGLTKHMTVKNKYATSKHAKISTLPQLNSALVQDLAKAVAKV
Procedure: IC50 values of compounds against CDK1 (cyclin B) were determined by Z′-LYTE™. These screening assays were performed at Invitrogen Life Technologies (Grand Island, N.Y.) on a low volume NBS, black 384-well plate (#4514, Corning). 0.1 μL of 100× test compound in 100% DMSO (at specific solutions) was mixed with 2.4 μL of Kinase Buffer (50 mM HEPES pH 7.5, 0.01% BRIJ-35, 10 mM MgCl2, 1 mM EGTA), 5 μL of 2× Kinase (3.5-46.4 ng CDK1/cyclin B)/Peptide (2 μM Ser/Thr 18), and 2.5 μL of 4×ATP solution (34 μM). The plates were shaken for 30 seconds, and incubated for 60 minutes at room temperature. Development Reagent Solution (5 μL of 1:1024 dilution) was added to the plates followed with another 30-second plate shake, and the plates were further incubated at room temperature for one hour. The plates were read on fluorescence plate reader with Dual emission at 445 nm and 520 nm.
(§8) The following equations were used for Z′-LYTE™ Screening Assay Data Analysis. Percent inhibition (100-% activity) was fitted to the “four-parameter logistic model” in XLfit for determination of IC50 values.

CDK2 (cyclin A) = target: T4, CDK2 (cyclin A) (Homo sapiens, UniProt P24941); experiment: Z'-LYTE kinase inhibition IC50; type: biochemical; settings: ATP 31 μM, 60 minutes at room temperature
T4 construct: purchased Invitrogen Life Technologies (assay run at the vendor)
Procedure: IC50 values of compounds against CDK2 (cyclin A) were determined by Z′-LYTE™. These screening assays were performed at Invitrogen Life Technologies (Grand Island, N.Y.) on a low volume NBS, black 384-well plate (#4514, Corning). 0.1 μL of 100× test compound in 100% DMSO (at specific solutions) was mixed with 2.4 μL of Kinase Buffer (50 mM HEPES pH 7.5, 0.01% BRIJ-35, 10 mM MgCl2, 1 mM EGTA), 5 μL of 2× Kinase (1.22-10.3 ng CDK2/cyclin A)/Peptide (2 μM Ser/Thr 12), and 2.5 μL of 4×ATP solution (31 μM). The plates were shaken for 30 seconds, and incubated for 60 minutes at room temperature. Development Reagent Solution (5 μL of 1:1024 dilution) was added to the plates followed with another 30-second plate shake and the plates were further incubated at room temperature for one hour. The plates were read on fluorescence plate reader with Dual emission at 445 nm and 520 nm.
as §8

T1 sequence (P11802 whole entry): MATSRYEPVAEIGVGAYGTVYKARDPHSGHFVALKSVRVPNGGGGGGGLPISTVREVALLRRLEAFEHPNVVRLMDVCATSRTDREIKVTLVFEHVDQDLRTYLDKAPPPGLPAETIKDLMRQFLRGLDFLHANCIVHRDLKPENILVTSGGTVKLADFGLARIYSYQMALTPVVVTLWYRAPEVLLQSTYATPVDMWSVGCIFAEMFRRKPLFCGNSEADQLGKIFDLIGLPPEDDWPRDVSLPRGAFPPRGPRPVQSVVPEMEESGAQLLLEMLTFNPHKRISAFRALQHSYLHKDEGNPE
T1 sequence (P24385 whole entry partner): as the sequence (P24385 whole entry partner) above

| Compound | IC50 (CDK4) [nM] | IC50 (CDK6) [nM] | IC50 (DU4475) [nM] | IC50 (MCF-7) [nM] | IC50 (CDK1 (cyclin B)) [nM] | IC50 (CDK2 (cyclin A)) [nM] |
| --- | --- | --- | --- | --- | --- | --- |
| CC(C)N1CCOc2c(F)cc(-c3nc(Nc4nc5cc(C6=CCNCC6)ccc5s4)ncc3F)cc21 [Compound 120, N-(5-fluoro-4-(8-fluoro-4-isopropyl-3,4-dihydro-2H-benzo[b][1,4]oxazin-6-yl)pyrimidin-2-yl)-5-(1,2,3,6-tetrahydropyridin-4-yl)benzo[d]thiazol-2-amine] | > 190 | > 200 | 130 | 80 |  |  |
| CC(C)N1CCOc2c(F)cc(-c3nc(Nc4ccc5[nH]nc(C6CCNCC6)c5c4)ncc3F)cc21 [Compound 59, N-(5-fluoro-4-(8-fluoro-4-isopropyl-3,4-dihydro-2H-benzo[b][1,4]oxazin-6-yl)pyrimidin-2-yl)-3-(piperidin-4-yl)-1H-indazol-5-amine] | 15 | 24 | 1490 | 3440 | 7 | 15 |
